Non-standard residues stand in square brackets, D forms with d. Residues, ends and D or L forms follow the SMILES beside them. ξ: configuration not given here. *: point of attachment. Cbz = O=C(OCc1ccccc1)*; Boc = CC(C)(C)OC(=O)*; Aib = CC(C)(N)C(=O)O; ξDap = NCC(N)C(=O)O
Row | SMILES | melting point [°C]
1 | CCOC(=O)C1CCN(C(=O)/C=C/c2ccc(Sc3ccc4c(c3)OCCO4)c([N+](=O)[O-])c2)CC1 | 78 to 88
2 | Nc1cccc(Oc2ccc(C(=O)c3cccc(N)c3)cc2)c1 | 48 to 52
3 | CCNC(=O)Cc1cccc([N+](=O)[O-])c1 | 115 to 117
4 | CCn1c(Oc2cccc(N3CCNCC3)c2)nnc1[C@@H](C)NS(=O)(=O)c1ccc(Cl)c(Cl)c1 | 175 to 178
5 | O=C1CCC(N2Cc3c(OCc4ccc(CN5CCC(F)(F)C5)cc4)cccc3C2=O)C(=O)N1 (stereo not given) | 126 to 128
6 | CC(C)(C)c1cc(Br)c(O)c(C=NO)c1 | 167 to 169
7 | Cc1cc(SC#N)c(C(C)C)cc1O | 72 to 75
8 | CC12C=CC(=O)C=C1C1OC1C1C2CCC2(C)C(=O)CCC12 (stereo not given) | 182 to 194
9 | CCOC(=O)c1cn(C2COC2)c2c(C)c(F)c(F)cc2c1=O | 157 to 165
10 | O=C(c1ccc(OC2CCOCC2)cc1)c1ccc([N+](=O)[O-])cc1 | 105 to 106
11 | COc1ccc(C=CC(=O)OCCC(C)CCc2ccccc2)c(O)c1 (stereo not given) | 70 to 73
12 | Cc1nc(-c2ccc(C(=N)NO)cc2)sc1C(=O)N[C@H](C)[C@](O)(Cn1cncn1)c1ccc(F)cc1F | 135 to 148
13 | CCC(COc1cccc(COc2cccc3ccc(=O)[nH]c23)c1)OC(C)=O (stereo not given) | 81 to 84
14 | O=C1Cc2cc3c(CCC4CCN(Cc5ccccc5)CC4)noc3cc2N1 | 118 to 119
15 | O=c1[nH]c2cc(Cl)c(Cl)cc2n1CCCN1CCN(C(c2ccccc2)c2ccccc2)CC1 | 214
16 | O=c1[nH]c(=Cc2ccc3ccccc3n2)c(=O)[nH]c1=Cc1ccc(F)cc1 | 319 to 320
17 | CN(C)CCN(Cc1ccccc1)C1=NC(=O)C(=Cc2cccc(-c3cc(F)c(O)c(C45CC6CC(CC(C6)C4)C5)c3)c2)S1 | 242 to 246
18 | O=C(NCc1ccc(F)c(F)c1)c1ccnc(N2CCN(Cc3ccc(F)cc3)C2=O)c1 | 182 to 183
19 | COC(=O)[C@@]1(c2ccc(Br)cc2)CC1(c1ccccc1)c1ccccc1 | 82 to 85
20 | Nc1nc2ccc(Cl)nc2c(=O)[nH]1 | > 330
21 | Cc1c(C)c2c(c(C)c1N)OC(C)(C)C2=O | 150 to 151
22 | NS(=O)(=O)c1cccc(-c2noc(-c3cnn4c(C5CC5)cc(-c5ccc(C(F)(F)F)cc5)nc34)n2)c1 | 277
23 | CCN1C(=O)CN(c2ccccc2)C1=O | 142
24 | C=C[C@H]1OC(C)(C)O[C@@H](CC(=O)OCc2ccccc2)[C@H]1NC(=O)OCc1ccccc1 (relative stereo) | 39 to 40.8
25 | O=c1[nH]c2ccccc2c2c(CCO)n(-c3ccccc3)nc12 | 310 to 312

Row | SMILES | melting point [°C]
26 | O=C(O)CCCCCCCCCCCCCCCCCCCCCN1C(=O)C=CC1=O | 106
27 | CCc1c(C)sc2nc(C(C)C)c(CO)c(-c3ccc(F)cc3)c12 | 188 to 191
28 | COc1cc(Br)nc2[nH]cc(-c3ccnc(N)n3)c12 | > 210
29 | O=C(CCc1cccnc1)NCCCCC1CCN(C(=O)Nc2cccc3ccccc23)CC1 | 143 to 144
30 | CCOC(=O)Cc1ccc(NC(=O)/C=C/c2c(C)noc2-c2ccccc2)cc1 | 164 to 165
31 | CCOC(=O)c1c(SC)nn(-c2c(Cl)cc(Cl)cc2Cl)c1C | 95 to 98
32 | CCCCNC(=O)Cc1cc(=O)oc2cc(OCc3cccc(Cl)c3)ccc12 | 112 to 113
33 | O=C(CCCN1CCN2c3ccccc3NC(=O)C2C1)c1ccc(F)cc1 (stereo not given) | 145 to 150
34 | Cc1ccc(-c2ccc3c(c2)C=C(C(=O)Nc2ccc(CN4CCCCC4)cc2)CC3)cc1 | 187 to 189
35 | COC(=O)C(C)(C)N(OC(C)(C)C#N)C(C)(C)C | 78 to 85
36 | CCCCOc1ccc(-c2ncc(Br)cn2)cn1 | 134 to 138
37 | CC1(c2ccc(Br)cc2)Cc2cc(O)c(Cl)c(Cl)c2C1=O (stereo not given) | 221 to 223
38 | O=c1[nH]c(=O)n(C2CC(F)C(CCl)O2)cc1C=CBr (stereo not given) | 203
39 | COC(=O)CCCNC(=O)C(COS(C)(=O)=O)NS(=O)(=O)c1ccc(Cl)cc1 (racemic) | 95 to 99
40 | CC1(C)Cc2cc3c(cc2O1)OCC31C(=O)N(CC(=O)Nc2ccccc2F)c2cccc(-c3cncnc3)c21 (stereo not given) | > 250
41 | COC(=O)c1cnn(-c2cccc(Cl)c2)c1C(N)=O | 191 to 192
42 | Cc1ccc2c(c1)c(N1CCN(C(=O)c3cccs3)CC1)c(C#N)c(=O)n2Cc1ccccc1 | 183
43 | COc1cc(CN2CCc3cc(O)c(OC)cc3C2)cc(OC)c1 | 127 to 128
44 | O=C(O)Cc1c(C(=O)c2ccc(-c3cccs3)cc2)[nH]c2cc(Cl)ccc12 | 246 to 249
45 | O=C1CC[C@](CO)(COCc2ccccc2)O1 | 78
46 | COc1ccc(-c2nc(C(C)C)sc2-c2ccc(OC)cc2)cc1 | 61 to 65
47 | COCc1nnc2n1-c1sc(Cl)cc1C(c1ccccc1[N+](=O)[O-])=NC2 | 204 to 205
48 | CC(C)(C)c1cc(C=O)n(Cc2ccc(C(F)(F)F)cc2Cl)n1 | 147 to 149
49 | CSc1nc(-c2ccncc2)n(-c2ccc(C(C)C)cc2)c(=O)c1C#N | 173 to 175
50 | CNC1C(O)CC2C3CCc4cc(O)cc(C)c4C3CCC21C (stereo not given) | 215 to 231

Row | SMILES | melting point [°C]
51 | COC(=O)CCC(OC(=O)Oc1ccccc1)C(=O)c1ccc(Cl)cc1 (stereo not given) | 97 to 98
52 | CS(=O)(=O)Nc1cccc(S(F)(F)(F)(F)F)c1 | 80 to 82
53 | Cc1cc(OCc2ccccc2)cc(C)c1NC(=O)CCl | 165
54 | CCCOc1nc(N)nc2c1ncn2C1C=CC(CO)C1 (stereo not given) | 97 to 99
55 | Cc1cccc(CO)c1Cl | 63 to 64
56 | Cc1n[nH]c(NCCCCOc2cccc(CN3CCCCC3)c2)n1 | 138 to 139
57 | COc1ccc(CS(=O)(=O)c2cc3ccc(O)cc3oc2=O)cc1 | 231 to 232
58 | CCCCCCCCCCCCCC(=O)O[C@H](CCCCCCCCCCC)CC(=O)N[C@@H](CO)C(=O)OCc1ccccc1 | 56 to 61
59 | Clc1ccc(Cl)c(CN2CCNc3ncc(I)cc32)c1 | 169
60 | COC(=O)c1ccc(C(N)=O)cc1Cl | 154 to 156
61 | O=C(c1ccccc1)c1nsc(N2CCN(c3ccccn3)CC2)n1 | 110 to 111
62 | Oc1ccc(OC[C@@H](O)CNCCc2ccc(-n3c(CCC4CCCC4)nc4cccnc43)cc2)cc1 | 59 to 61
63 | O=C(O)/C(=C/c1ccccc1)CSC(=O)c1ccccc1 | 160
64 | CC(C)(C)c1cc(CCC(=O)NCCNc2cccc(Cl)c2C#N)cc(C(C)(C)C)c1O | 164 to 167
65 | CCc1c(Cl)c(CC)c(-c2c(O)c(C)nn(C)c2=O)c(CC)c1Cl | 266 to 267
66 | O=C(O)[C@@H](Cl)[C@H](O)c1ccccc1 | 98 to 100
67 | COc1cc(C2CCOC2=O)c([N+](=O)[O-])cc1OC (stereo not given) | 144 to 147
68 | CC(C)(C)OC(=O)N1C[C@@H](S)C[C@@H]1CN(C(=O)OC(C)(C)C)S(N)(=O)=O | 90 to 91.5
69 | COC(=O)c1cncn1C1CCCc2ccccc21 (stereo not given) | 63
70 | Cc1ccc(C=CC(=O)NNC(=O)C=Cc2ccc(C)cc2)cc1 | 307
71 | CC(C)(C)OC(=O)C1CCCN1Cc1ccc2cc(NC(=O)c3ccc(-c4ccc(Cl)cc4)cc3)ccc2n1 (stereo not given) | 163 to 166
72 | CCOC(=O)Cc1ccc(CC(=O)c2c(O)c3cccnc3n(-c3ccccc3)c2=O)cc1 | 156 to 158
73 | Sc1nncn1C1CCCCC1 | 162 to 165
74 | COc1ccc(N2CCN(c3c(C)c(C)c4c(c3C)CC(C)(CN3CCC(O)CC3)O4)CC2)cc1 (stereo not given) | 139 to 143
75 | CCCCCCCCCCCCCCC(CCC(=O)OCc1ccccc1)(C(=O)O)C(=O)O | 47 to 49

Row | SMILES | melting point [°C]
76 | O=C(O)[C@H]1CCn2c(cc3ccccc32)C1 | 244 to 246
77 | Nc1ccc(Sc2c(O)c3c(=O)n(-c4ccccc4)c4ccccc4c3oc2=O)cc1 | > 300
78 | CC(C)(C)c1ccc(S(=O)(=O)/C=C/C(N)=O)cc1 | 151
79 | C=C(CC(C)C)C(=O)NCCCCCC(N)=O | 76 to 82
80 | CC(c1ccc(-c2ccccc2)c(F)c1)c1nc(N)no1 (stereo not given) | 174 to 175
81 | COc1ccc(Cl)cc1C(=O)NCCc1ccc(C(C)CC(=O)O)cc1 (stereo not given) | 125 to 127
82 | O=C(CCCCCCNC(=O)c1cn2c3c(cccc13)CCC2)NO | 205 to 206
83 | COC(=O)CCc1ccccc1CC1C2CCC(O2)C1c1nc(C(=O)CCCCCC2CCCCC2)co1 (stereo not given) | 170 to 171
84 | CC(C)c1nc(-c2ccc(F)cc2)c(C=O)c(C(C)C)c1CO | 147
85 | FC(F)(F)c1csc(Nc2cc3ccccc3cn2)n1 | 200 to 203
86 | O=C(NCCc1ccccn1)c1ccccc1-c1ccccc1CNS(=O)(=O)c1ccccc1 | 131
87 | CC(C)(C)O[C@@H]1C[C@H]2C(=O)O[C@H](C(Cl)(Cl)Cl)N2C1 | 147
88 | CC(=O)Oc1cc2c(c3ccccc13)N(C(C)=O)c1ccccc1S2 | 141 to 142
89 | CCOC(=O)c1cc2cc(OCCCOC)cc([N+](=O)[O-])c2[nH]1 | 94 to 95
90 | O=c1[nH]c2ccc(F)c(F)c2c(=O)o1 | > 240
91 | CC(=C(c1ccc(N(C)C)cc1)c1ccc(N(C)C)cc1)P(C(C)(C)C)C(C)(C)C | 133 to 135
92 | Cc1cc2c(-c3ccccc3N)nc(N3CCNCC3)nc2s1 | 232 to 236
93 | NC(=O)c1ccc2cc(Nc3ccc(O)cc3)ccc2c1 | 260
94 | CC(C)CCOc1c(-c2ccc(S(C)(=O)=O)cc2)cnn(-c2ccc(F)c(F)c2)c1=O | 121 to 123
95 | C=CCc1cc(C(C)=O)c(O)cc1OCCCCC(=O)O | 110 to 111
96 | CC(=O)SCC(Cc1c(Cl)cccc1Cl)C(=O)NN1CCOCC1 (stereo not given) | 175
97 | CC(C)(O)[C@H](CO)NC(=O)[C@@H](CC(=O)O)n1ccc(-c2ccc(-c3ccccc3)cc2)c1 | 150 to 152
98 | CN(C)c1c(Br)cc2c3c(cccc13)C(=O)N(O)C2=O | 185 to 187
99 | COC(=O)C(CNC(=O)OC(C)(C)C)NC(=O)C(C)(C)NC(=O)OCc1ccccc1 (stereo not given) (Cbz-[Aib]-[ξDap](Boc)-OMe) | 100 to 101
100 | Nc1cnccc1-c1ccc(Cl)cc1 | 144 to 146

Reference: a melting point compilation (Tetko et al.; mined from patent text by program, amines drawn as free bases though some values may be those of a salt)
